Measured values from publication PMC8557866, “Novel Small Molecule Growth Inhibitor Affecting Bacterial Outer Membrane Reduces Extraintestinal Pathogenic Escherichia coli (ExPEC) Infection in Avian Model” (Microbiology Spectrum, 2021).
Converted amounts (≈) assume the structure as drawn.

What was measured:
APEC O78 = test: Gene expression analysis by RT-qPCR in GI-7-treated APEC; type: cell-based, Escherichia coli; details: 4 h treatment, vs untreated APEC
Procedure: We also quantitated the expression of other genes essential for maintaining OM integrity (bamA, mlaA, lolB, and pbgA) ([21]). […] An APEC O78 culture treated with 1% DMSO was used as a control. Total RNA was extracted using the RNeasy minikit (Qiagen), and 5 μg of purified RNA was used to synthesize cDNA using the RT^2 first strand kit (Qiagen). The RT-qPCR was performed using Maxima SYBR green/ROX qPCR master mix (Thermo Fisher) in a RealPlex^2 Mastercycler (Eppendorf) with a 55°C annealing temperature. The primers (Table S3) were designed using the PrimerQuest tool and obtained from Integrated DNA Technologies (IDT). The data were normalized to the housekeeping gene encoding glyceraldehyde-3-phosphate dehydrogenase (GAPDH), and relative fold changes were calculated using the cycle threshold (ΔΔCT) method ([79]). Two independent experiments were conducted.

[1] = Quantification of residue in chicken tissues (LC-MS); type: in vivo, chickens
Source text: Chickens (n = 5/time point) from an experimental set-up as described above for the floor trial were sacrificed at 2 days (day 13; 2 DPLT), 5 days (day 16; 5 DPLT), and 31 days (day 42; 31 DPLT) post-last treatment. […] Tissue samples from chickens treated with SDM were used for comparison. […] Details of the methods are included in the supplemental material.

APEC [2] = test: microbe, parasite or virus in culture; type: cell-based, Escherichia coli
LptE [3] = test: Membrane protein SDS-PAGE and LC-MS/MS (emPAI of LptE); type: cell-based, Escherichia coli; details: GI-7-treated APEC; untreated APEC 13.84
Procedure: A GI-7-treated culture of APEC O78 was prepared as described above, and the fractions of cytoplasmic and total membrane proteins were prepared using ultracentrifugation as described previously ([80]). […] The gel was stained with Coomassie blue R-250, the bands of ∼21.4 kDa (expected size of LptE) were excised from both untreated and GI-7-treated lanes of the gel, and in-gel digestion was performed as previously described ([81]). LC-MS/MS of the digested samples was performed on the Thermo Scientific Orbitrap Fusion MS instrument equipped with an EASY-Spray source operated in positive ion mode (CCIC, MS&P Facility, OSU). The Thermo Scientific UltiMate 3000 RSLCnano system containing an Acclaim PepMap 100 (75 μm by 2 cm) trap column and Easy-Spray nano separation column (PepMap RSLC C18, […], 100 Å, 75 μm by 150 mm; Thermo Scientific) was used for injection and elution of samples. For the proteomics database search, the E. coli Uniprot protein database with trypsin/P (selected as the enzyme) was used with the fragment mass tolerance set to 0.5 Da. Mascot Daemon (Matrix Science version 2.6.0) and Scaffold Proteome software were used for the MS/MS data analysis. […] The exponentially modified protein abundance index (emPAI) ([82]) was also calculated to compare the LptE levels between untreated and GI-7-treated gel fragments.

LptE [4] = test: LptD/E immunoblot analysis; type: cell-based, Escherichia coli; details: vs untreated APEC
Procedure: For immunoblot analysis, total membrane proteins (25 μg) resolved by SDS-PAGE under nonreducing (in the absence of β-mercaptoethanol) conditions ([37]) as described above were electrotransferred onto an Immun-Blot polyvinylidene difluoride (PVDF) membrane (Bio-Rad) and probed for LptD or LptE using anti-LptD (1:20,000) and anti-LptE (1:30,000) polyclonal rabbit antibodies (GenScript) and goat anti-rabbit IgG horseradish peroxidase (HRP)-conjugated secondary antibody (Sigma-Aldrich). Anti-LptD and anti-LptE antibodies were generated at GenScript using keyhole limpet hemocyanin (KLH)-conjugated peptides as the antigens (LptD epitope, […], and LptE epitope, […]). The epitopes were selected using the OptimumAntigen design tool (GenScript). The transferred membrane was developed with Clarity Western ECL substrate (Bio-Rad) and visualized in a FluorChem Q imager (ProteinSimple).

APEC [5] = test: LPS analysis in outer membrane of APEC; type: cell-based, Escherichia coli; details: vs untreated APEC; total carbohydrate assay P < 0.0001
Procedure: Extracted LPS (normalized based on the OD600 before extraction) was separated on a 4-to-20% gradient SDS-PAGE gel and stained with Coomassie blue R-250 to visualize the LPS levels ([83]). In addition, LPS was also quantitated using a total carbohydrate assay kit (Cell Biolabs, Inc., San Diego, CA) following the manufacturer’s protocol. Two independent experiments with six replicates in each experiment were performed.

[6] = test system: eukaryotic cells and wax moth larva; design: method as in PMID 30333507; details: cited from earlier work
[7] = Pharmacokinetic study in plasma of chickens (LC-MS); type: in vivo
Procedure: Details of the methods are included in the supplemental material. page 3: previously(3). […] The mixtures were then incubated at […] for 30 min and proteins were removed by ultracentrifugation at 13,000xg for 25 min at 2 °C.

**Q.** Which results are given for `COc1ccc(CNCc2cccc(C(F)(F)F)c2)cc1OCC(O)CN1CCCC1` (stereo not shown) [GI-7]?
**A.** Downregulation of lptD gene expression (APEC O78; ~50% growth inhibition): 12.90 fold; Downregulation of bamA gene expression (APEC O78): 7.72 fold; Downregulation of lolB gene expression (APEC O78): 1.92 fold; Downregulation of lptA gene expression (APEC O78): 5.13 fold; Downregulation of lptC gene expression (APEC O78): 4.99 fold; Downregulation of lptE gene expression (APEC O78): 5.39 fold; Downregulation of mlaA gene expression (APEC O78): 9.94 fold; Downregulation of pbgA gene expression (APEC O78): 5.75 fold; Residue concentration in muscle ([1]; 2 DPLT): 0.04 ± 0.03 ppm/g tissue; Residue level in kidney ([1]; 2 DPLT): 0.7 ± 0.6 ppm/g tissue; Residue level in liver ([1]; 2 DPLT): 0.5 ± 0.4 ppm/g tissue; Residue concentration in muscle ([1]; 5 DPLT): 0.01 ± 0.01 ppm/g tissue; Residue level in kidney ([1]; 5 DPLT): 0.3 ± 0.3 ppm/g tissue; Residue level in liver ([1]; 5 DPLT): 0.2 ± 0.2 ppm/g tissue; Residue concentration in muscle ([1]; 31 DPLT): 0.0 ± 0.0 ppm/g tissue; Residue level in kidney ([1]; 31 DPLT): 0.0 ± 0.0 ppm/g tissue; Residue level in liver ([1]; 31 DPLT): 0.0 ± 0.0 ppm/g tissue; Residues in tissues relative to FDA limits for antibiotics ([1]; in vivo): below the limits permitted by the Food and Drug Administration; Resistance in vivo (APEC [2]; APEC isolated from chickens treated with GI-7): no in vivo resistance; MBC (APEC [2]; Escherichia coli): 50 µM (≈ 21.9 µg/mL); MIC (APEC [2]; Escherichia coli): 25 µM (≈ 11 µg/mL); emPAI of LptE (LptE [3]): 8.46; LptE level (immunoblot) (LptE [4]): decreased the LptE level; LPS level in OM of APEC (APEC [5]): lower level of LPS; Toxicity to eukaryotic cells and wax moth larva [6]: minimally toxic; Cmax ([7]; commercial broiler, plasma, po, mean ± standard deviation, read-out: Peak plasma concentration (Cmax)): 434 ± 388 ng/mL; Tmax ([7]; commercial broiler, plasma, po, postadministration, read-out: Time to maximum concentration (Tmax)): 8 h; Half-life ([7]; comparison in words): shorter half-life than SDM; Cumulative accumulation in plasma after repeated administration ([7]; data not shown): no cumulative accumulation; Excretion ([7]; plasma): ≤ 24 h; Absorption (time at which absorbed) ([7]; plasma, drinking water delivery): 0.5 h
